Source: PMC9866191, “Novel 9-Benzylaminoacridine Derivatives as Dual Inhibitors of Phosphodiesterase 5 and Topoisomerase II for the Treatment of Colon Cancer” (Molecules, 2023)

Assays:
PDE5A = target: T1, PDE5A (Homo sapiens, UniProt O76074); assay: Phosphodiesterase 5 HTRF cGMP assay; assay type: biochemical; settings: for IC50: means ± S.D. (n = 4), read-out: PDE5 IC50; for inhibition at 10 µM: read-out: PDE5 % Inhibition at 10 μM
T1 construct: purchased BPS Bioscience, San Diego, CA, USA
Experimental: All the synthesized acridine derivatives were tested for their in vitro ability to inhibit PDE5A at a screening dose of 10 µM.
The enzyme activities of phosphodiesterase 5 (PDE5) were measured using an HTRF cGMP assay kit (Cisbio, Codolet, France). […] Afterward, the HTRF reagent (cGMP-d2 and anti-cGMP-cryptate) was added for 1 h at 25 °C, and PDE activity was assayed on an HTRF reader (Tecan Infinite F200 Pro).

CCRF-CEM = assay: NCI-60 one-dose screen; assay type: cell-based; settings: Homo sapiens, Leukemia panel, single dose 10^−5 M, read-out: Growth inhibition %
ACHN = assay: NCI-60 one-dose screen; assay type: cell-based; settings: Homo sapiens, Renal Cancer panel, single dose 10^−5 M, read-out: Growth inhibition %
Experimental: (§1) The newly synthesized compounds were screened for their in vitro anticancer activity at the Developmental Therapeutic Program (DTP) of the National Cancer Institute (NCI). The screening involved a panel of 60 human tumor cell lines consisting of 9 tissue types to screen for potential anti-cancer agents. The primary screening of submitted compounds was performed by testing a single dose (10^−5 M) in the full NCI-60 panel. The detailed % inhibition by the tested compounds against the 60 cell lines is shown in Tables S1–S3 in the Supporting Information.

CAKI-1 = assay: NCI-60 one-dose screen; assay type: cell-based; settings: Homo sapiens; CAKI-1, Renal Cancer panel; single dose 10^−5 M; read-out: Growth inhibition %
Experimental: as §1

COLO 205 = assay: NCI-60 one-dose screen; assay type: cell-based; settings: Homo sapiens; COLO 205, Colon Cancer panel; single dose 10^−5 M; read-out: Growth inhibition %
Experimental: as §1

HCC-2998 = assay: NCI-60 one-dose screen; assay type: cell-based; settings: Homo sapiens; HCC-2998, Colon Cancer panel; single dose 10^−5 M; read-out: Growth inhibition %
Experimental: as §1

HCT-15 = assay: NCI-60 one-dose screen; assay type: cell-based; settings: Homo sapiens; HCT-15, Colon Cancer panel; single dose 10^−5 M; read-out: Growth inhibition %
Experimental: as §1

K-562 = assay: NCI-60 one-dose screen; assay type: cell-based; settings: Homo sapiens, K562; K-562, Leukemia panel; single dose 10^−5 M; read-out: Growth inhibition %
Experimental: as §1

KM12 = assay: NCI-60 one-dose screen; assay type: cell-based; settings: Homo sapiens; KM12, Colon Cancer panel; single dose 10^−5 M; read-out: Growth inhibition %
Experimental: as §1

M14 = assay: NCI-60 one-dose screen; assay type: cell-based; settings: Homo sapiens; M14, Melanoma panel; single dose 10^−5 M; read-out: Growth inhibition %
Experimental: as §1

MDA-MB-435 = assay: NCI-60 one-dose screen; assay type: cell-based; settings: Homo sapiens; MDA-MB-435, Melanoma panel; single dose 10^−5 M; read-out: Growth inhibition %
Experimental: as §1

NCI-H522 = assay: NCI-60 one-dose screen; assay type: cell-based; settings: Homo sapiens; NCI-H522, Non-small cell lung panel; single dose 10^−5 M; read-out: Growth inhibition %
Experimental: as §1

NCI/ADR-RES = assay: NCI-60 one-dose screen; assay type: cell-based; settings: Homo sapiens, Ovarian Cancer panel, single dose 10^−5 M, read-out: Growth inhibition %
Experimental: as §1

OVCAR-3 = assay: NCI-60 one-dose screen; assay type: cell-based; settings: Homo sapiens; OVCAR-3, Ovarian Cancer panel; single dose 10^−5 M; read-out: Growth inhibition %
Experimental: as §1

SF-295 = assay: NCI-60 one-dose screen; assay type: cell-based; settings: Homo sapiens; SF-295, CNS Cancer panel; single dose 10^−5 M; read-out: Growth inhibition %
Experimental: as §1

SK-MEL-28 = assay: NCI-60 one-dose screen; assay type: cell-based; settings: Homo sapiens; SK-MEL-28, Melanoma panel; single dose 10^−5 M; read-out: Growth inhibition %
Experimental: as §1

SK-MEL-2 = assay: NCI-60 one-dose screen; assay type: cell-based; settings: Homo sapiens; SK-MEL-2, Melanoma panel; single dose 10^−5 M; read-out: Growth inhibition %
Experimental: as §1

SK-MEL-5 = assay: NCI-60 one-dose screen; assay type: cell-based; settings: Homo sapiens; SK-MEL-5, Melanoma panel; single dose 10^−5 M; read-out: Growth inhibition %
Experimental: as §1

SK-OV-3 = assay: NCI-60 one-dose screen; assay type: cell-based; settings: Homo sapiens; SK-OV-3, Ovarian Cancer panel; single dose 10^−5 M; read-out: Growth inhibition %
Experimental: as §1

SN12C = assay: NCI-60 one-dose screen; assay type: cell-based; settings: Homo sapiens, Renal Cancer panel, single dose 10^−5 M, read-out: Growth inhibition %
Experimental: as §1

SNB-75 = assay: NCI-60 one-dose screen; assay type: cell-based; settings: Homo sapiens; SNB-75, CNS Cancer panel; single dose 10^−5 M; read-out: Growth inhibition %
Experimental: as §1

SR = assay: NCI-60 one-dose screen; assay type: cell-based; settings: Homo sapiens, Leukemia panel, single dose 10^−5 M, read-out: Growth inhibition %
Experimental: as §1

SW-620 = assay: NCI-60 one-dose screen; assay type: cell-based; settings: Homo sapiens; SW-620, Colon Cancer panel; single dose 10^−5 M; read-out: Growth inhibition %
Experimental: as §1

T-47D = assay: NCI-60 one-dose screen; assay type: cell-based; settings: Homo sapiens, T47D, Breast Cancer panel, single dose 10^−5 M, read-out: Growth inhibition %
Experimental: as §1

U251 = assay: NCI-60 one-dose screen; assay type: cell-based; settings: Homo sapiens, U-251; U251, CNS Cancer panel; single dose 10^−5 M; read-out: Growth inhibition %
Experimental: as §1

UACC-257 = assay: NCI-60 one-dose screen; assay type: cell-based; settings: Homo sapiens; UACC-257, Melanoma panel; single dose 10^−5 M; read-out: Growth inhibition %
Experimental: as §1

SF-268 = assay: NCI-60 one-dose screen; assay type: cell-based; settings: Homo sapiens; SF-268, CNS Cancer panel; single dose 10^−5 M; read-out: Growth inhibition %
LOX IMVI = assay: NCI-60 one-dose screen; assay type: cell-based; settings: Homo sapiens, Melanoma panel, single dose 10^−5 M, read-out: Growth inhibition %
IGROV1 = assay: NCI-60 one-dose screen; assay type: cell-based; settings: Homo sapiens, IGROV-1; IGROV1, Ovarian Cancer panel; single dose 10^−5 M; read-out: Growth inhibition %

| SMILES | IC50 (PDE5A) | inhibition at 10 µM (PDE5A) | inhibition at 10 µM (CCRF-CEM) | inhibition at 10 µM (ACHN) | inhibition at 10 µM (CAKI-1) | inhibition at 10 µM (COLO 205) | inhibition at 10 µM (HCC-2998) | inhibition at 10 µM (HCT-15) | inhibition at 10 µM (K-562) | inhibition at 10 µM (KM12) | inhibition at 10 µM (M14) | inhibition at 10 µM (MDA-MB-435) | inhibition at 10 µM (NCI-H522) | inhibition at 10 µM (NCI/ADR-RES) | inhibition at 10 µM (OVCAR-3) | inhibition at 10 µM (SF-295) | inhibition at 10 µM (SK-MEL-28) | inhibition at 10 µM (SK-MEL-2) | inhibition at 10 µM (SK-MEL-5) | inhibition at 10 µM (SK-OV-3) | other results |
| --- | --- | --- | --- | --- | --- | --- | --- | --- | --- | --- | --- | --- | --- | --- | --- | --- | --- | --- | --- | --- | --- |
| COc1ccc(CNc2c3ccccc3nc3ccccc23)cc1F [Compound 19, Acridin-9-yl-(3-fluoro-4-methoxybenzyl)-amine] | 3390 ± 1030 nM | 79.2 ± 8.48% | 70.4% | 89.1% | 78.7% | 91.3% | 94.2% | 89% | 95.2% | 67.2% | 80.1% | 92.4% | 63.8% | 79.2% | 47.8% | 79.9% | 53.3% | 54.9% | 63.5% | 52% | inhibition at 10 µM (SN12C): 74.1%; inhibition at 10 µM (SNB-75): 57.5%; inhibition at 10 µM (SR): 95.2%; inhibition at 10 µM (SW-620): 83.4%; inhibition at 10 µM (T-47D): 65%; inhibition at 10 µM (U251): 73.1%; inhibition at 10 µM (UACC-257): 62.2%; inhibition at 10 µM (SF-268): 50.9%; inhibition at 10 µM (LOX IMVI): 98.8%; inhibition at 10 µM (IGROV1): 84.2% |
| COc1ccc2nc3ccccc3c(NCc3ccc(C)cc3)c2c1 [Compound 26, (2-Methoxyacridin-9-yl)-(4-methylbenzyl)-amine] | 830 ± 120 nM | 88.1 ± 4.28% | 92.9% | 83.7% | 73.8% | 141% | 158% | 88.6% | 97.3% | 62.7% | 71.3% | 57.8% | 73.6% | 76.2% | 53.1% | 76.4% | 33.6% | 30% | 65.6% | 47.3% | inhibition at 10 µM (SN12C): 76.4%; inhibition at 10 µM (SNB-75): 53.4%; inhibition at 10 µM (SR): 113%; inhibition at 10 µM (SW-620): 81.5%; inhibition at 10 µM (T-47D): 69.4%; inhibition at 10 µM (U251): 84.7%; inhibition at 10 µM (UACC-257): 108%; inhibition at 10 µM (SF-268): 51.6%; inhibition at 10 µM (LOX IMVI): 106%; inhibition at 10 µM (IGROV1): 82.8% |
